In series [1] the test system is RT4. The series can be described thus: Proliferation assay using bladder cancer cell lines, RT4. Type of series: cell-based, human. The following applies: Homo sapiens, 72 h culture, CyQuant proliferation assay. How it is done:
(§1) Bladder cancer cell lines (T24, RT112, HT1376 and RT4 are human bladder cancer cell lines; NHEK are normal human keratinocytes) were obtained from the European Collection of Cell Cultures (Salisbury, UK). Cells were plated at 3×10^3 per well, in flat bottomed 96-well plates in 100 μl of DMEM medium containing: 5% Fetal Clone I, 50 μg/l gentamicin, 1 mM sodium pyruvate and 1% non-essential amino acids. After culturing for 24 h at 37° C. in 5% CO2, to allow cells to adhere to the plates, VDR ligands (compounds (2), (4), (5) and other vitamin D3 analogs as shown in Table 4) were added at concentrations ranging from 100 μM to 0.3 μM in 100 μl of above-mentioned complete medium. After a further 72 h of culture, cell proliferation was measured using a fluorescence-based proliferation assay kit. (CyQuant Cell Proliferation Assay Kit, Molecular Probes, Eugene, Oreg., USA). The IC50 was calculated from the regression curve of the titration data.

The subject of series [2] is IFN-γ production. The series can be described thus: IFN-γ production in the mixed leukocyte response (MLR). The series is classed as cell-based. The following applies: 120 h; allogeneic PBMC from 2 donors, 5 days, ELISA; read-out: INF-γ IC50. The procedure: Immature dendritic cells (DC) were prepared as described in Romani, N. et al. (Romani, N. et al. (1996) J. Immunol. Meth. 196:137). IFN-γ production by allogeneic T cell activation in the mixed leukocyte response (MLR) was determined as described in Penna, G., et al., J Immunol., 164: 2405-2411 (2000).
Briefly, peripheral blood mononuclear cells (PBMC) were separated from buffy coats by Ficoll gradient and the same number (3×10^5) of allogeneic PBMC from 2 different donors were co-cultured in 96-well flat-bottom plates. The vitamin D3 compounds were added to each of the cultures.
(In general: In an ELISA, binding on a coated surface is turned into a signal by an enzyme label.)

A short description of series [3]: MTD in CD1 mouse (highest non-hypercalcemic dose). To be noted: in vivo.
The test system of series [4] is Human BPH cells. Description: BPH cell proliferation assay (testosterone-induced). Type of series: cell-based. To be noted: 48 h. How it is done:
Human BPH cells, prepared, maintained and used as previously described in Crescioli C, et al. Journal of Clinical and Endocrinology Metabolism (2000) 85 p 2576-2583, were obtained from prostate tissues derived from 5 patients, who underwent suprapubic adenomectomy for BPH, after informed consent and approval by the Local Ethical Committee.
For all cell proliferation assays, 4×10^4 BPH cells were seeded onto 12-well plates in their growth medium, starved in red- and serum-free medium containing 0.1% BSA for 24 h, and then treated with specific stimuli for 48 h. Cells in phenol red- and serum-free medium containing 0.1% BSA were used as controls. Thereafter, cells were trypsinized, and each experimental point was derived from hemocytometer counting, averaging at least six different fields for each well, as previously reported (see Crescioli C, et al. Journal of Clinical and Endocrinology Metabolism (2000) 85 p 2576-2583).
Growth assays were also carried out using a fixed concentration of androgens (10 nM) with or without vitamin-D analogs (1 nM, 10 nM) or the anti-androgens finasteride (F, 1 nM) and cyproterone acetate (Cyp, 100 nM. Growth assays were also performed using a fixed concentration of T (10 nM) or GFs (10 ng/ml) with or without the vitamin-D analogs. (10 nM).
In the same experiment, each experimental point was repeated in triplicate or quadruplicate and experiments were performed 3 times. Results are expressed as % variation (mean±SEM) over the maximal T or GF-induced stimulation.

The subject of series [5] is NHEK. Description: Proliferation assay, NHEK normal human keratinocytes. The following applies: Homo sapiens, NHEK; 72 h culture, CyQuant proliferation assay. Type of series: cell-based. The procedure:
as §1

Series [6] deals with RT112. The series can be described thus: Proliferation assay using bladder cancer cell lines, RT112. The series is classed as cell-based, human. The following applies: Homo sapiens, 72 h culture, CyQuant proliferation assay. The procedure: as §1
A short description of series [7]: Determination of Maximum Tolerated Dose (MTD). To be noted: female, C57BL/6, mouse, in vivo, po. The procedure: The maximum tolerated dose of the vitamin D3 compounds of the invention were determined in eight week-old female C57BL/6 mice (3 mice/group) dosed orally (0.1 ml/mouse) with various concentrations of Vitamin D3 analogs daily for four days. Analogs were formulated in miglyol for a final concentration of 0.01, 0.03, 0.1 0.3, 1, 3, 10, 30, 100 and 300 μg/kg when given at 0.1 ml/mouse p.o. daily. Blood for serum calcium assay was drawn by tail bleed on day five, the final day of the study.

Series [8] has as its system HT 1376. Description: Proliferation assay using bladder cancer cell lines, HT1376. The following applies: Homo sapiens, HT-1376; 72 h culture, CyQuant proliferation assay. The series is classed as cell-based, human. The procedure: as §1
Series [9] has as its system ECV. Description: Proliferation assay using bladder cancer cell lines, ECV. The following applies: Homo sapiens; 72 h culture, CyQuant proliferation assay. The series is classed as cell-based, human.
In series [10] the test system is human stromal bladder cells. The series can be described thus: Inhibition of basal human bladder cell growth. The series is classed as cell-based. From the text:
The Inventors confirmed the presence of vitamin D receptors (VDRs), as previously reported in the literature, on these cells (see below in FIG. 3).
(§2) The maximum tolerated dose (MTD) in rats is also listed for each compound (Table 7).

Series [11] is described as follows: Maximum tolerated dose (MTD) in rats (Table 7). To be noted: rat, in vivo.
Description: as §2

Molecules are shown by their SMILES.

As usually defined, the IC50 is the point on the concentration scale where inhibition reaches its midpoint. `C=C1/C(=C\C=C2/CCC[C@]3(C)C(C(C)CC#CC(O)(C(F)(F)F)C(F)(F)F)=CCC23)CC(OC(C)=O)C[C@@H]1OC(C)=O` (stereo partly shown) [(14), 1,3-Di-O-acetyl-1,25-dihydroxy-16-ene-23-yne-26,27-hexafluoro-cholecalciferol]: the IC50 in [1] (RT-4, 72 h) is 19 µM; in [2], 0.0273 nM; in series [4], 501 µM; in series [5], 0.98 µM; in series [6] (RT-112, 72 h), 26 µM; in series [8], > 100 µM. In addition, the IC50 in series [9] was > 100 µM. Moreover, the MTD in series [3] is 0.01 mg/kg. In series [7], the MTD at 4 days amounted to 0.01 mg/kg.

As to `CC(=O)OC1C/C(=C/C=C2\CCC[C@@]3(C)C2CCC3C2(CC#CC(OC(C)=O)(C(F)(F)F)C(F)(F)F)CC2)C[C@@H](OC(C)=O)C1` (stereo partly shown) [(26), 1,3,25-Tri-O-acetyl-1,25-dihydroxy-20-cyclopropyl-23-yne-26,27-hexafluoro-19-nor-cholecalciferol], the IC50 in [1] (RT-4, 72 h) was 5 µM; in series [2], 0.922 nM; in [4] it was > 100000 µM; in series [5], 32.8 µM; in series [6] (RT-112, 72 h), 15 µM; in series [8] it was > 100 µM. In addition, the IC50 in [9] is 63.5 µM. Further, the MTD in series [3] was 0.01 mg/kg. The same molecule showed an MTD at 4 days in series [7] of 0.01 mg/kg.

Take `C=C1/C(=C\C=C2/CCC[C@]3(C)C(C(C)C/C=C/C(C)(C)O)=CCC23)CC(OC(C)=O)C[C@@H]1OC(C)=O` (stereo partly shown) [(9), 1,3-Di-O-acetyl-1,25-dihydroxy-16,23E-diene-cholecalciferol]: the IC50 was 82 µM in series [1] (RT-4, 72 h); 0.00912 µM in series [4]; 5.1 µM in series [5]; 14 µM in [6] (RT-112, 72 h); > 100 µM in [8]; 58.7 µM in [9]. Besides, the MTD in series [3] is 0.003 mg/kg.

Turning to `CC(=O)OC1C/C(=C/C=C2\CCC[C@]3(C)C(C(C)CCCC(C)(C)O)=CCC23)C[C@@H](OC(C)=O)C1` (stereo partly shown) [(18), 1,3-Di-O-acetyl-1,25-dihydroxy-16-ene-19-nor-cholecalciferol], the IC50 in series [1] (RT-4, 72 h) was 8 µM; in [4] it was 2.24e-05 µM; in series [5], 5.8 µM; in series [6] (RT-112, 72 h) it was 1 µM; in series [8] it was 96 µM; in [9] it was 27.9 µM. The MTD in [3] was 0.003 mg/kg.

For `C=C1/C(=C\C=C2/CCC[C@@]3(C)C2CCC3C2(CCCC(C)(C)O)CC2)C[C@@H](OC(C)=O)C[C@@H]1OC(C)=O` (stereo partly shown) [(35), 1,3-Di-O-acetyl-1,25-dihydroxy-20-cyclopropyl-cholecalciferol], the IC50 is 10 µM in [1] (RT-4, 72 h); 1260 µM in series [4]; 4.7 µM in series [5]; 9 µM in series [6] (RT-112, 72 h); 67 µM in [8]; 52.1 µM in series [9]. Also, the MTD in series [3] is 0.03 mg/kg. The molecule also had an MTD at 4 days in series [7] of 0.03 mg/kg.

Take `CC(=O)OC1C/C(=C/C=C2\CCC[C@@]3(C)C2CCC3C2(CC#CC(O)(C(F)(F)F)C(F)(F)F)CC2)C[C@@H](OC(C)=O)C1` (stereo partly shown) [(27), 1,3-Di-O-acetyl-1,25-dihydroxy-20-cyclopropyl-23-yne-26,27-hexafluoro-19-nor-cholecalciferol]: the IC50 in series [2] was 0.078 nM; in series [4], 0.000794 µM; in series [5], 2.6 µM; in series [8], 43 µM; in series [9] it was 25.5 µM. Moreover, the MTD in [3] was 0.01 mg/kg. The same molecule yielded an MTD at 4 days in series [7] of 0.01 mg/kg.

On to `C=C1/C(=C\C=C2/CCC[C@]3(C)[C@@H]([C@H](C)CCCC(C)(C)O)CC[C@@H]23)C[C@@H](O)C[C@@H]1O` [Calcitriol, 1,25-dihydroxycholecalciferol, reference compound], for which the IC50 in series [1] (RT-4) is 45 µM; in series [2], 0.022 nM; in series [4], 0.0851 µM; in [5], 4.9 µM; in series [6] (RT-112), 19 µM; in series [8] it was 50 µM. For the same molecule, in [10] (human stromal bladder cells in culture), the “inhibiting the basal growth of bladder cells” value is “effective”. In addition, the MTD in series [3] is 0.001 mg/kg. In series [7], this molecule had an MTD at 4 days of 0.001 mg/kg.

For `C=C1/C(=C\C=C2/CCC[C@]3(C)C(C(C)CC#CC(C)(C)O)=CCC23)CC(OC(C)=O)C[C@@H]1OC(C)=O` (stereo partly shown) [(7), 1,3-Di-O-acetyl-1,25-dihydroxy-16-ene-23-yne-cholecalciferol], the IC50 is 80 µM in series [1] (RT-4, 72 h); 0.051 nM in series [2]; 42.7 µM in [4]; 4.8 µM in [5]; 3 µM in [6] (RT-112, 72 h); > 100 µM in series [8]. In addition, the IC50 in series [9] worked out at 27.7 µM. The MTD in series [3] was 0.01 mg/kg. In addition, in series [7], the MTD at 4 days was 0.01 mg/kg.

Consider `C=C1/C(=C\C=C2/CCC[C@@]3(C)C2CCC3C(C)CC#CC(C)(C)O)CC(OC(C)=O)C[C@@H]1OC(C)=O` (stereo partly shown) [(41), 1,3-Di-O-acetyl-1,25-dihydroxy-23-yne-cholecalciferol], for which the IC50 was 85 µM in series [1] (RT-4, 72 h); 0.08 nM in [2]; 0.000724 µM in series [4]; 4.2 µM in series [5]; 8 µM in series [6] (RT-112, 72 h); > 100 µM in series [8]. For the same molecule, the IC50 in series [9] worked out at 40 µM. In addition, the MTD in series [3] was 0.001 mg/kg. Besides, in series [7], the MTD at 4 days was 0.001 mg/kg.

Consider `C=C1/C(=C\C=C2/CCC[C@@]3(C)C2CCC3C2(CC#CC(C)(C)O)CC2)CC(OC(C)=O)C[C@@H]1OC(C)=O` (stereo partly shown) [(29), 1,3-Di-O-acetyl-1,25-dihydroxy-20-cyclopropyl-23-yne-cholecalciferol], for which the IC50 is 13 µM in series [1] (RT-4, 72 h); < 10000 µM in series [10] (Homo sapiens); 0.0078 nM in series [2]; 0.00316 µM in series [4]; 5.9 µM in series [5]; 8 µM in series [6] (RT-112, 72 h). Moreover, the half-inhibitory concentration (IC50) worked out at 80 µM in series [8] and 49.6 µM in series [9]. Further, the MTD in series [3] and in series [11] was 0.03 mg/kg throughout. For the same molecule, the MTD at 4 days in series [7] was 0.03 mg/kg.

These data come from patent US20080064668A1, “1,3-Diacylated, 26,27-Alkyl/Haloakyl Vitamin D3 Compounds and Methods of Use Thereof” (BioXell S.p.A., priority 2003, published 2008).
